# Experimental data from the METLIN SMRT retention time set (Domingo-Almenara et al. 2019).
# Experiment: gradient 5% acetonitrile 3 min, to 50% in 2 min, to 85% in 15 min, held 3 min, 100 µL/min
# Conditions: column: Zorbax Extend-C18 2.1 x 50 mm; eluents: water / acetonitrile, 0.1% formic acid
# Procedure, shortened: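 Values are retention times taken from adduct peaks that software picked and an analyst inspected. The pure standards were run as mixtures of ~100 molecules on HPLC linked to a quadrupole time-of-flight mass spectrometer, in positive and negative ionization mode. A Zorbax Extend-C18 column (2.1 × 50 mm, 1.8 μm) was used at 100 μL/min with water and acetonitrile, each including 0.1% formic acid.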
row,RP-LC retention time,Compound
1,575 s,Cc1ccc(CNC(=O)N(C)CC2CCOC2)cc1 (stereo not drawn)
2,968 s,COc1cc(C(=O)N(Cc2ccc(C(C)C)cc2)C2CCS(=O)(=O)C2)cc(OC)c1OC (stereo not drawn)
3,1230 s,Cc1ccc(-c2coc(-c3ccc(NC(=O)c4ccc(Br)o4)cc3)n2)cc1
4,1100 s,Cc1ccc(-c2nnc(Cc3nc(-c4ccccc4F)no3)o2)cc1F
5,856 s,Cc1ccc(-c2cc(C(=O)O)c3c(-c4ccc(C)cc4)[nH]nc3n2)cc1
6,712 s,CCn1ccc(C(=O)Nc2nnc(CSc3ccccc3)o2)n1
7,855 s,Cc1sc(NC(=O)c2ccccc2C(=O)O)nc1-c1ccccc1
8,762 s,COCCCNC(=O)c1nnc(-c2ccc(S(=O)(=O)N3CCC(C)CC3)cc2)o1
9,730 s,Cc1cc2c(cc1S(=O)(=O)N1CCCC1C(=O)NC1CCCC1)OC(C)C(=O)N2 (stereo not drawn)
10,1040 s,CCOc1ccccc1-c1nn2c(-c3cccnc3)nnc2s1
11,761 s,O=C(c1ccc[nH]1)N1CCC2(CC1)NC(=O)N(Cc1ccc(Cl)cc1)C2=O
12,978 s,CC1CC(=O)N(CC(=O)Nc2cccc(Cl)c2)c2ccccc2S1 (stereo not drawn)
13,892 s,CCN(C(=O)Cc1c(C(=O)O)c(C)cn1CC)c1cc(C)ccc1C
14,1280 s,COc1cccc(-n2c(=O)c(C(=O)NC3CCCCC3)c(O)c3cccnc32)c1
15,879 s,O=C(C1CC1)N1CCc2sc(S(=O)(=O)Nc3cccc(Cl)c3)cc2C1
16,745 s,CC(C)CNC(=O)C1CCN(c2cnn(Cc3ccccc3)c(=O)c2)CC1
17,790 s,CCOC(=O)C1CCN(c2nc(=O)n(CC(=O)Nc3ccccc3C)c3ccccc23)CC1
18,942 s,Cc1cc(OCC(=O)NCc2ccc3c(c2)OCO3)nc(-c2ccc(F)cc2)n1
19,898 s,CCn1cc(S(=O)(=O)N2CCO[C@@H](COc3ccccn3)[C@@H]2c2ccccc2)cn1
20,752 s,CN(CC(=O)N1CCN(c2ccccc2F)CC1)S(=O)(=O)c1c[nH]c(C(=O)N2CCCC2)c1
21,961 s,Cc1ccc(-n2cc3c(c(C(=O)Nc4ccc(C)cn4)c2=O)CC(C)(C)CC3=O)cc1
22,700 s,Cc1nc(-c2ccccc2)cc2nn(CC(=O)N3CCOCC3)c(=O)n12

row,RP-LC retention time,Compound
1,598 s,O=C(NC1CC1)C1CCN(c2nc3ccc(-c4cccnc4)nc3s2)CC1
2,860 s,Cc1nnc2ccc(N3CCC(C(=O)N4CCN(c5cccc(Cl)c5)CC4)CC3)nn12
3,912 s,CCOc1ccc2c(n1)CCN(C(=O)Nc1cc(C)cc(C)c1)C2
4,706 s,Cc1cccc(CNC(=O)C2(C)Cn3cnc(C(=O)NC4CC4)c3C(=O)N2C2CC2)c1 (stereo not drawn)
5,774 s,CCOC(=O)C1CCN(C(=O)Cc2nnc(-c3sccc3C)o2)CC1
6,583 s,Cc1cc(CN2CCC(CNC(=O)C(=O)NCc3ccc4c(c3)OCO4)CC2)c(C)o1
7,1050 s,O=C(CSc1cc(N2CCCCC2)ncn1)Nc1cccc(Br)c1
8,1260 s,O=C(Cc1ccc(S(=O)(=O)N2CCN(c3ccccn3)CC2)s1)N1CCOCC1
9,923 s,O=C(c1cc2ccccc2[nH]1)N1CCN(c2cc(-c3ccc(Cl)cc3)[nH]n2)CC1
10,720 s,CN(CCNC(=O)c1c2c(cn(-c3ccccc3)c1=O)C(=O)CC(C)(C)C2)C1CCCCC1
11,560 s,CC(C)COc1ccc(S(=O)(=O)N2CCOC(c3ccccc3)C2)cc1 (stereo not drawn)
12,950 s,CCN(CC)S(=O)(=O)c1cccc(-c2nnc(-c3ccccc3OC)o2)c1
13,880 s,Cc1ccc2[nH]cc(CCNC(=O)CCc3ccccc3)c2c1
14,832 s,CCOC(=O)c1[nH]c(C)c(CCC(=O)N2CCC(C(=O)NCc3ccccc3OCC)CC2)c1C
15,802 s,COc1ccc(Cl)cc1NC(=O)CSc1ccc2nnc(-c3cccc(F)c3)n2n1
16,1070 s,Cn1c(=O)oc2cc(-c3noc(-c4ccccc4Br)n3)ccc21
17,642 s,O=C(NCC(F)(F)F)C1CCN(Cc2noc(-c3ccc(F)cc3)n2)CC1
18,715 s,CCOC(=O)c1cn(CC(=O)Nc2ccc3c(c2)OCO3)c2nc(C)ccc2c1=O
19,688 s,Cc1cc(NC(=O)Cn2cnc3c(cnn3C(C)(C)C)c2=O)no1
20,712 s,Cn1nnc2ccc(-c3noc(CNC(=O)c4cccs4)n3)cc21
21,744 s,O=C(c1cccc(F)c1)N1CCC(n2c(-c3ccco3)nc3cccnc32)C1 (stereo not drawn)
22,1030 s,Cc1ccc(C)c(-c2csc(Nc3ccc(S(=O)(=O)Nc4nc(C)cc(C)n4)cc3)n2)c1

row,RP-LC retention time,Compound
1,718 s,COc1ccc(C(=O)N2CC(n3cc(COCC4CC4)nn3)C2)c(OC)n1
2,701 s,O=C(NCc1ccc2c(c1)OCO2)C1CCCN(c2nnc3c(Cl)cccn23)C1 (stereo not drawn)
3,739 s,CCCCCn1c(=O)c2ccccc2n(Cc2nc(-c3ccc(OC(F)(F)F)cc3)no2)c1=O
4,931 s,CCOCCCNC(=O)c1c2c(cn(-c3ccc(Cl)cc3)c1=O)C(=O)CC(C)(C)C2
5,1310 s,COc1cccc(C2Cn3nnc(-c4nc(-c5ccc(OC(F)(F)F)cc5)no4)c3CO2)c1 (stereo not drawn)
6,783 s,CC(C)(Oc1ccc(Cl)cc1)C(=O)Nc1c(-c2ccccc2)nc2ccccn12
7,1060 s,CCOc1ccc(-c2csc(C)n2)cc1S(=O)(=O)N1CCN(c2ccc(OC)cc2)CC1
8,656 s,CN(CC1CCOC1)C(=O)Nc1ccccc1F (stereo not drawn)
9,668 s,COCC(=O)N1CCCn2cc(-c3ccccc3F)nc21
10,746 s,COc1cccc(-c2ccc(=O)n(CCc3nc(-c4cccnc4)no3)n2)c1
11,678 s,O=C(NCCc1nc2cccnc2n1Cc1ccccc1)NCc1ccco1
12,670 s,CCOC(=O)Cc1csc(NC(=O)CNC(=O)c2c[nH]c3ccccc23)n1
13,1010 s,CC1CCCN(S(=O)(=O)c2ccc(-c3nnc(C4CCC4)o3)o2)C1 (stereo not drawn)
14,1220 s,COc1cccc(-n2c(=O)c3sccc3n(Cc3nc(-c4ccc(C(C)(C)C)cc4)no3)c2=O)c1
15,1070 s,CCCCOc1ccc(C(=O)Nc2ccc(-c3nc(C)no3)cc2)cc1
16,788 s,O=C(Nc1ccc(Oc2ccccc2)cc1)c1cccc([N+](=O)[O-])c1C(=O)O
17,933 s,O=S(=O)(Nc1cccn2c(C3CCC3)nnc12)c1ccc2c(c1)CCCC2
18,1300 s,Clc1ccc(-c2csc(Nc3ccccc3)n2)cc1Cl
19,814 s,O=C(CC(=O)Nc1ccc(F)cc1Cl)Nc1ccc2nc3n(c(=O)c2c1)CCCCC3
20,632 s,Cc1sc2ccn(Cc3ccc(F)cc3)c(=O)c2c1C(=O)NCc1cccnc1
21,838 s,O=C(c1ccc2c(c1)OCO2)N1CCC2(CC1)NC(=O)N(Cc1ccccc1Cl)C2=O
22,656 s,Cc1ccccc1C1CC(=O)c2c(C)nc(N3CCN(CCO)CC3)nc2C1 (stereo not drawn)

row,RP-LC retention time,Compound
1,671 s,CC(C)(C)n1nnnc1C1CC2(CCOCC2)C(=O)N1Cc1ccc(F)cc1Cl (stereo not drawn)
2,1180 s,CCCn1cc(C2=CCN(S(=O)(=O)c3cccc(C(F)(F)F)c3)CC2)c2cccnc21
3,849 s,Cc1ccc(C(=O)N2CCCC(COc3ccc(C(=O)NC4CC4)cc3)C2)cc1F (stereo not drawn)
4,578 s,CN(C)C1(CC2CC2)CCN(C(=O)c2ccsc2)CC1
5,900 s,Cc1cc(N2CCC(NS(=O)(=O)c3ccccc3F)C2=O)ccc1F (stereo not drawn)
6,896 s,CC(C)(C)c1noc(-c2ccc(-n3cnc(C(=O)NCC4CC4)c3)nc2)n1
7,783 s,COc1ncc(C(=O)NCc2ccccc2C(F)(F)F)cn1
8,711 s,C=CCNC(=O)c1cn(-c2cc(-c3nc(C)no3)ccn2)cn1
9,830 s,O=C(NC1CCCCC1)N1CCC(c2noc(COCC3CC3)n2)CC1
10,959 s,Cc1nc(-c2cc(S(=O)(=O)N(C)C3CCCCC3)cn2C)sc1C(=O)N1CCCC1
11,720 s,CCn1cc(-c2nc(CC(=O)Nc3ccc(F)cc3Cl)cs2)c2cccnc21
12,882 s,CCc1nn(C)c(=O)c2cc(S(=O)(=O)NCc3cc(F)cc(F)c3)cn12
13,939 s,CCC(C(=O)Nc1c(-c2ccccc2)nc2cc(C)ccn12)c1ccccc1 (stereo not drawn)
14,882 s,O=C(NC1CCCCC1)N1CCc2nc(-c3ccc(F)cc3)ncc2C1
15,885 s,O=C(Cn1c(=O)c(CCC(=O)NC2CCCC2)nc2ccccc21)Nc1ccc(Cl)cc1F
16,669 s,CNC(=O)c1noc([C@@H]2CC(F)(F)CN2C(=O)C2CCC2)n1
17,593 s,CCc1cc(N2CCN(C(=O)c3cc(OC)c(OC)c(OC)c3)CC2)nc2nncn12
18,720 s,NC(=O)c1cc(N2CCOCC2)nc2c(Cl)cccc12
19,775 s,CCNC(=O)CCc1nc2ccccc2n(CC(=O)Nc2ccc(OCC)cc2)c1=O
20,895 s,CCN(CC)S(=O)(=O)c1ccc2c(c1)N(CC(=O)N(C)Cc1ccccc1)C(=O)C1CCCCN21 (stereo not drawn)
21,742 s,CC(C)C(=O)NCCC1CCN(C(=O)Nc2cc(F)ccc2F)CC1
22,652 s,CCN1C(=O)COc2ccc(-c3nc(NC(=O)C4CCCCC4)sc3C)cc21
